# From ChEMBL document CHEMBL5236654, “Fine-tuning of nitrogen-containing bisphosphonate esters that potently induce degradation of HMG-CoA reductase” (Bioorg Med Chem, 2023)
# Biological target: T1, 3-hydroxy-3-methylglutaryl-coenzyme A reductase (Homo sapiens, UniProt P04035)
# T1 sequence (P04035 whole entry): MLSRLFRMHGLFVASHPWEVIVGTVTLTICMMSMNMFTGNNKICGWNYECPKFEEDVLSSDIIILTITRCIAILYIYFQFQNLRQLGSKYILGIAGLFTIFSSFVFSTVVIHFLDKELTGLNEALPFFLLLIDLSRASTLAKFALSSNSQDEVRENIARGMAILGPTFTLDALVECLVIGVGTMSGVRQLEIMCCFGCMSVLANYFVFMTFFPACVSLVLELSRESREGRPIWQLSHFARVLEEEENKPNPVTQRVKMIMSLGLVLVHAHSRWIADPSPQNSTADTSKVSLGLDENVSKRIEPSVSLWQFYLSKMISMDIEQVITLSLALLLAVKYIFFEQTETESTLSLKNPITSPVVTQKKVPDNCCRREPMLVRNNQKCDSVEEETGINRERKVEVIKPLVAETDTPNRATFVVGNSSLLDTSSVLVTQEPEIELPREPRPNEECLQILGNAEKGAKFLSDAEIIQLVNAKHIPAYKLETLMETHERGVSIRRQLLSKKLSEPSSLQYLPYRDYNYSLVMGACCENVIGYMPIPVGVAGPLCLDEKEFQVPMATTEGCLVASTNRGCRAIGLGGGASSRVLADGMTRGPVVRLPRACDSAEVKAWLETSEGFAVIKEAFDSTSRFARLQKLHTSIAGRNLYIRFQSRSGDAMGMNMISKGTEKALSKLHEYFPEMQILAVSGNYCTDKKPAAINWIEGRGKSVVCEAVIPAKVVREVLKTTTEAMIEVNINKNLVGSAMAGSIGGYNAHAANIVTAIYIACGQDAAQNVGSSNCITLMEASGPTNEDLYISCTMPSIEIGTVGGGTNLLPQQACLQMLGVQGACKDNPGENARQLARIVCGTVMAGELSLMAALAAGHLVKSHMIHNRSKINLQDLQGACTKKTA
# Test: Induction of HMGCR degradation in HEK293 cells incubated for 4 hrs by luciferase based assay
# Assay type: cell-based
row,SMILES,EC50 [nM]
1,CC(C)OP(=O)(OC(C)C)C(Cc1cc(C(C)(C)CF)nc(C(C)(C)CF)c1)P(=O)(OC(C)C)OC(C)C,84.2
2,CC(C)OP(=O)(OC(C)C)C(Cc1cc(C(C)(C)C)nc(C(C)(C)C)c1)P(=O)(OC(C)C)OC(C)C,132
3,CC(C)OP(=O)(OC(C)C)C(Cc1cc(C(C)C)nc(C(C)(C)C)c1)P(=O)(OC(C)C)OC(C)C,351
4,CCCOP(=O)(OCCC)C(Cc1cc(C(C)(C)C)nc(C(C)(C)C)c1)P(=O)(OCCC)OCCC,832
5,CC(C)(C)c1cc(CC(P(=O)(OCC2CC2)OCC2CC2)P(=O)(OCC2CC2)OCC2CC2)cc(C(C)(C)C)n1,> 10000
6,CC(C)OP(=O)(OC(C)C)C(Cc1cc(C23CC4CC(CC(C4)C2)C3)nc(C23CC4CC(CC(C4)C2)C3)c1)P(=O)(OC(C)C)OC(C)C,> 10000
7,CCCCC(CC)c1cc(CC(P(=O)(OC(C)C)OC(C)C)P(=O)(OC(C)C)OC(C)C)cc(C(C)(C)C)n1 (centres undefined),990
8,CCC(CC)c1cc(CC(P(=O)(OC(C)C)OC(C)C)P(=O)(OC(C)C)OC(C)C)cc(C(C)(C)C)n1,722
9,CC(C)OP(=O)(OC(C)C)C(Cc1cc(C(C)(C)C)nc(C23CC4CC(CC(C4)C2)C3)c1)P(=O)(OC(C)C)OC(C)C,2260
10,CC(C)OP(=O)(OC(C)C)C(Cc1cc(C(C)(C)C)nc2ccccc12)P(=O)(OC(C)C)OC(C)C,1450
11,COCOCC(C)(C)c1cc(CC(P(=O)(OC(C)C)OC(C)C)P(=O)(OC(C)C)OC(C)C)cc(C(C)(C)C)n1,492
12,CC(C)OP(=O)(OC(C)C)C(Cc1cc(C2CCCCC2)nc(C(C)(C)C)c1)P(=O)(OC(C)C)OC(C)C,598
13,CC(C)OP(=O)(OC(C)C)C(Cc1cc(C(C)(C)C)nc(C(C)(C)COCc2ccccc2)c1)P(=O)(OC(C)C)OC(C)C,311
14,CC(C)OP(=O)(OC(C)C)C(Cc1cc(C(C)(C)C)nc(C(C)(C)CO)c1)P(=O)(OC(C)C)OC(C)C,389
15,CCC(CF)(CF)c1cc(CC(P(=O)(OC(C)C)OC(C)C)P(=O)(OC(C)C)OC(C)C)cc(C(C)(C)C)n1,102
16,CCCCOP(=O)(OCCCC)C(Cc1cc(C(C)(C)C)nc(C(C)(C)C)c1)P(=O)(OCCCC)OCCCC,> 10000
17,CC(C)COP(=O)(OCC(C)C)C(Cc1cc(C(C)(C)C)nc(C(C)(C)C)c1)P(=O)(OCC(C)C)OCC(C)C,> 10000
18,CC(C)OP(=O)(OC(C)C)C(Cc1cc(C(C)(C)C)cc(C(C)(C)C)n1)P(=O)(OC(C)C)OC(C)C,693
19,CCC(CF)(CF)c1cc(CC(P(=O)(OC(C)C)OC(C)C)P(=O)(OC(C)C)OC(C)C)cc(C(CC)(CF)CF)n1,356
20,CC(C)OP(=O)(OC(C)C)C(Cc1cc(C2CCCCC2)nc(C2CCCCC2)c1)P(=O)(OC(C)C)OC(C)C,> 10000
21,CCC(C)(C)c1cc(CC(P(=O)(OC(C)C)OC(C)C)P(=O)(OC(C)C)OC(C)C)cc(C(C)(C)CC)n1,98.2
22,CCCC(C)(C)c1cc(CC(P(=O)(OC(C)C)OC(C)C)P(=O)(OC(C)C)OC(C)C)cc(C(C)(C)C)n1,336
23,CC(C)OP(=O)(OC(C)C)C(Cc1cc(C(C)(C)C)nc(C(C)(C)CF)c1)P(=O)(OC(C)C)OC(C)C,97.6
24,CC(C)OP(=O)(OC(C)C)C(Cc1cc(C(C)(C)C)nc(C(C)(C)C)n1)P(=O)(OC(C)C)OC(C)C,450
25,CCOP(=O)(OCC)C(Cc1cc(C(C)(C)C)nc(C(C)(C)C)c1)P(=O)(OCC)OCC,337
26,CC(C)OP(=O)(OC(C)C)C(Cc1cc(Cc2ccccc2)nc(C(C)(C)C)c1)P(=O)(OC(C)C)OC(C)C,874
27,CCC(C)(C)c1cc(CC(P(=O)(OC(C)C)OC(C)C)P(=O)(OC(C)C)OC(C)C)cc(C(C)(C)C)n1,152

# Biological target: T1, 3-hydroxy-3-methylglutaryl-coenzyme A reductase
# Test: Induction of HMGCR degradation in human HepG2 cells incubated for 3 hrs by densitometric analysis
# Assay type: cell-based
row,SMILES,EC50 [nM]
1,CCOP(=O)(OCC)C(Cc1cc(C(C)(C)C)c(O)c(C(C)(C)C)c1)P(=O)(OCC)OCC,1100

# Biological target: T2, 3-hydroxy-3-methylglutaryl-coenzyme A reductase (Cricetulus griseus, UniProt P00347)
# T2 sequence (P00347 whole entry): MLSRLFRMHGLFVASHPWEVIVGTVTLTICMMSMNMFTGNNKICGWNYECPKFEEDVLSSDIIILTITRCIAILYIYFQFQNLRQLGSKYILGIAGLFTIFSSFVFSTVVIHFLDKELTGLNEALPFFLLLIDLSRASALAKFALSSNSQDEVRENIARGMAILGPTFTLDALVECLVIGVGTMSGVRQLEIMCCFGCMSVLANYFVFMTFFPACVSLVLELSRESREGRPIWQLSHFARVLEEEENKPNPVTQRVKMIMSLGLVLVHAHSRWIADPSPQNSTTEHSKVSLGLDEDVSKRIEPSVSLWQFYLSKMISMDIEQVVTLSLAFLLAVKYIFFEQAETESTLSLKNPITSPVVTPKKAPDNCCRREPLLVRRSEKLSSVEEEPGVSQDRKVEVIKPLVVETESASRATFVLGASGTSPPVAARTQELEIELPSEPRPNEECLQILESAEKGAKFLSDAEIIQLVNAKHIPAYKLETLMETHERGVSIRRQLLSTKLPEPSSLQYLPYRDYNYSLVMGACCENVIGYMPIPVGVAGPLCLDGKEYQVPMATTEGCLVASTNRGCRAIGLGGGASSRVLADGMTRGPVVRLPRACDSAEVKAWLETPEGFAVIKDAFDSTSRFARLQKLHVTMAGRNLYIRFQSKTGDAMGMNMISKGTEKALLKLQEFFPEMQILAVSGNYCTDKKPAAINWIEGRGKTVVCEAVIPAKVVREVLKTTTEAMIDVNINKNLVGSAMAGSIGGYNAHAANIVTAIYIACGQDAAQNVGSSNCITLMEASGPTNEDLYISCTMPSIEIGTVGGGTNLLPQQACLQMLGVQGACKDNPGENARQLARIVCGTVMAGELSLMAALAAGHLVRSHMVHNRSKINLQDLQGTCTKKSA
# Test: Induction of HMGCR degradation in CHO-7 cells incubated for 16 hrs by immunoblotting assay
# Assay type: cell-based
row,SMILES,EC50 [nM]
1,C=CCC(O)(CC=C)CCC[C@@H](C)[C@H]1CC[C@H]2[C@@H]3[C@@H](O)C=C4C(C)(C)[C@@H](O)CC[C@]4(C)[C@H]3CC[C@]12C,390
